In PubChem BioAssay AID1645865 (Buhrlage Lab, Dana-Farber Cancer Institute and Novartis …, 2021):
Active and inactive are the calls of the source.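 How the source made its calls: active means maximal inhibition of the USP30 enzyme reaching 30% or more across the dose series; inactive means the rest.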

target: Ubiquitin carboxyl-terminal hydrolase 30 (Homo sapiens) (UniProt Q70CQ3); assay: ubiquitin-specific protease 30 DUB inhibitors, concentration-effect, biochemical, validation of primary actives (AID 1645865); conditions: purified USP30, Ub-rhodamine cleavage, fluorescence, 2 h
Sequence (Q70CQ3 whole entry, looked up): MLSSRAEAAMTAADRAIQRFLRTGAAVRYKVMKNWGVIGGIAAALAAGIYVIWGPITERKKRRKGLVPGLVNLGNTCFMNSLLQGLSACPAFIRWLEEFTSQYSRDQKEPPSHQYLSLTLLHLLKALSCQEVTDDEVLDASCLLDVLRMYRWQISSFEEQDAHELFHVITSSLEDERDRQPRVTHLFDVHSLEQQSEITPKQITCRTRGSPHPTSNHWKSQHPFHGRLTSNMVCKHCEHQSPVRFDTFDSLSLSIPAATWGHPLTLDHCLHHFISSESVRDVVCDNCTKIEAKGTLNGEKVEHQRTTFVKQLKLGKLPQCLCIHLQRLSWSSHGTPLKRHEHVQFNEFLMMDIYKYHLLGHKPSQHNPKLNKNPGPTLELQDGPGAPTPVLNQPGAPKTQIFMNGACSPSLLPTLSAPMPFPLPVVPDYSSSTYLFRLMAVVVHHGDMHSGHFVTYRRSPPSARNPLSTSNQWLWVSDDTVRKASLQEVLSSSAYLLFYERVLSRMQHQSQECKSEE

SMILES	IC50
CSc1ccc(CNCc2c(C(=O)O)n(Cc3ccccc3)c3cc(C)ccc23)cc1	> 50 µM (inactive)
COc1ccc(-n2c(SCC(=O)c3ccc(F)cc3)nnc2-c2cccnc2)cc1	21.9 µM
CN1CCN(c2ccc3nc(-c4ccccc4)c(-c4ccccc4)nc3c2)CC1	> 50 µM (inactive)
Cc1ccc2nc(NC(=O)CSc3nnc(-c4ccncc4)n3C3CC3)sc2c1	2.81 µM
COc1cccc(NC(=O)Nc2nccn(-c3ccc(F)cc3)c2=O)c1	21.2 µM
Cc1ccc(O)c(-c2cc(C(=O)Nc3ccccc3Cl)[nH]n2)c1	5.93 µM
O=C1CC(O)C(C2=CC(=O)c3c(O)cccc3C2=O)O1 (stereo not given)	4.46 µM
COc1ccc2nc(NC(=O)C(CC(C)C)NS(=O)(=O)c3ccc4c(c3)CCN4C(C)=O)sc2c1 (stereo not given)	31.1 µM
COC(=O)[C@]1(O)O[C@@]2(C(=O)OC)c3c(oc4cc(C)cc(O)c4c3=O)[C@H]3c4c(oc5cc(C)cc(O)c5c4=O)C[C@H]1[C@H]32	> 50 µM (inactive)
O=C(Nc1ccc(F)c(Cl)c1)c1ccc(N2CCCCS2(=O)=O)cc1Cl	> 50 µM (inactive)
COc1cccc(-c2cc(=O)[nH]c(Nc3nc(C)c4ccccc4n3)n2)c1	35.4 µM
CC(=O)NCc1nc(-c2ccc3c(c2)nc(C)c(=O)n3C2CCCC2)no1	> 50 µM (inactive)
CO[C@H]1/C=C/OC2(C)Oc3c(C)c(O)c4c(c3C2=O)C2(C=C(NC(=O)/C(C)=C\C=C\[C@H](C)[C@H](O)[C@@H](C)[C@@H](O)[C@@H](C)[C@H](OC(C)=O)C1C)C4=O)OCC(=O)O2 (stereo not given in full)	> 50 µM (inactive)
COCCN(C1CCN(CCc2ccc(Cl)cc2)CC1)S(=O)(=O)c1cccc2cccnc12	> 50 µM (inactive)
CCCc1nc2sc3c(NCc4ccco4)ncnc3c2c2c1CCC2	> 50 µM (inactive)
COc1ccc2nc(-c3ccc(NC(=O)c4cccc(OC)c4OC)cc3)cn2n1	1.89 µM
Cc1cc(C#N)c2c(C)ccc(C(C)C)cc1-2	> 50 µM (inactive)
Clc1cc2nc(N3CCN(c4ccccn4)CC3)c3nncn3c2cc1Cl	2.16 µM
Cc1ccccc1NC(=O)C(C)n1c(=O)cc(-c2ccccc2)c2c(C)nn(C)c21 (stereo not given)	2.45 µM
Cc1ccc(-n2c(=O)[nH]c3c(C(N)=O)nc(-c4cccnc4)nc32)cc1	3.37 µM

SMILES	IC50
Cc1ccc2nc(CNC(=O)c3ccccc3-c3nc(-c4ccc(F)cc4)no3)[nH]c2c1	33.9 µM
Cn1ncc2c(=O)n(Cc3cccc(Cl)c3)cnc21	> 50 µM (inactive)
O=C(NCc1ccccc1)c1ccc2c(=O)n(-c3ccccc3)c(=O)[nH]c2c1	16 µM
COc1ccccc1CNC(=O)c1c(O)c2cnn(-c3cccc(C)c3)c2[nH]c1=O	> 50 µM (inactive)
COc1ccc(N(CC(=O)Nc2cccc(F)c2)S(=O)(=O)c2ccc(OC)c(OC)c2)cc1	17.6 µM
Cc1nn(-c2ccccc2)c2c1N=C1C(Cl)=CC(Cl)=CN1C21C(=O)Nc2ccccc21 (stereo not given)	> 50 µM (inactive)
C=C(NC(=O)C(=C)NC(=O)c1csc(-c2ccc3c(n2)-c2csc(n2)-c2csc(n2)C(C(C)C2CO2)NC(=O)C(Cc2ccc(O)cc2)NC(=O)c2csc(n2)C(C(O)c2ccccc2)NC(=O)c2nc(sc2C)C(CC(N)=O)NC(=O)c2csc-3n2)n1)C(=O)O (stereo not given)	> 50 µM (inactive)
O=C(OCc1ccc(F)cc1)c1ccc2ccccc2n1	> 50 µM (inactive)
COc1ccc(NC(=O)CC(=O)c2ccc([N+](=O)[O-])cc2)cc1S(=O)(=O)Nc1ccc(Cl)cc1	37.1 µM
Cc1nn(-c2cccc(F)c2)c2c1C(C(=O)c1ccc(Cl)s1)CC(=O)N2 (stereo not given)	32.5 µM
O=C(c1ccco1)N1CCC2(CC1)CC1(CO2)Nc2ccccc2-n2cccc21 (stereo not given)	> 50 µM (inactive)
CC(C)CC(=O)Nc1cc(F)c2nc(N3CCOCC3)ccc2c1	> 50 µM (inactive)
Cc1c2c(nc3ccccc13)-c1ccccc1CC2	> 50 µM (inactive)
Cc1sc2ccn(C)c(=O)c2c1C(=O)NC1CCCC1	25.9 µM
COc1ccc(CC(=O)Nc2nc(-c3ccco3)c(-c3ccco3)s2)cc1	> 50 µM (inactive)
CC(C)(C)c1ccc(C(=O)Nc2ccc(Oc3cccnc3)nc2)cc1	> 50 µM (inactive)
CC1=C(c2ccc(F)cc2)S(=O)(=O)NC1=NCC(=O)Nc1ccc(F)cc1F	23.4 µM
N#Cc1cccc(S(=O)(=O)N2CCc3nc4ccccc4n3CC2)c1	20.3 µM
O=C(Nc1cccn(Cc2c(Cl)cccc2Cl)c1=O)c1ccccc1[N+](=O)[O-]	> 50 µM (inactive)
COc1ccc(-c2cc(-c3nnc4n3CCCCC4)n(-c3ccccc3)n2)cc1	39.3 µM

SMILES	IC50
O=[N+]([O-])c1ccccc1C(c1c[nH]c2ccccc12)c1c[nH]c2ccccc12	> 50 µM (inactive)
O=C(O)c1ccccc1C(=O)Nc1ccc(SC(C(=O)Nc2ccccc2)c2ccccc2)cc1 (stereo not given)	> 50 µM (inactive)
COc1ccc2[nH]c3c(c2c1)CCN1C(=O)N(c2ccccc2C(=O)NCc2ccccc2)C(=O)[C@]31C	28.5 µM
O=C1N(Cc2ccc(F)cc2)CCN1c1ccc2c(c1)CCC2	> 50 µM (inactive)
O=C1c2c(O)cccc2C2(Oc3cccc4cccc(c34)O2)C2OC12 (stereo not given)	31.8 µM
COc1ccc(Cl)cc1-n1nnc(C(=O)N2CCc3ccccc3C2)c1C	> 50 µM (inactive)
O=C(C1CCCN(S(=O)(=O)N2CCCCCC2)C1)N1CCN(c2ccccc2)CC1 (stereo not given)	> 50 µM (inactive)
C=C[C@]1(C)C=C2C(=O)[C@]3(O)OC(=O)[C@@]4(CCCC(C)(C)[C@H]34)[C@@]2(O)CC1	27.8 µM
O=C(NCc1ccccc1Cl)c1ccc(-c2nnc(-c3ccccc3)o2)cc1	1.52 µM
O=C(Nc1nnc2n1CCCS2)c1cc2ccccc2o1	> 50 µM (inactive)
CS(=O)(=O)n1nc(NCc2ccc(F)cc2)nc1NCc1ccc(F)cc1	> 50 µM (inactive)
O=C(c1ccc2ncccc2c1)N1CCC2(C1)Nc1cccnc1NC2=NC1CCCC1 (stereo not given)	> 50 µM (inactive)
Cc1ccc(C2c3cccn3CCN2C(=O)Nc2ccccc2)cc1 (stereo not given)	> 50 µM (inactive)
O=C(NCc1ccc(-c2nc3cnccc3o2)cc1)c1ccccc1F	17.5 µM
Cc1ccccc1Cc1nc(-c2ccc(=O)[nH]c2)no1	> 50 µM (inactive)
Cc1noc(-c2ccc(N3CCCC(C(=O)NCc4ccc(F)cc4)C3)nc2)n1 (stereo not given)	14.6 µM
Cc1cc(C)c(O)c(-c2cc(C(=O)Nc3ccccc3Cl)[nH]n2)c1	2.1 µM
CC(C)c1nc2sc3c(N(CCO)CCO)ncnc3c2c2c1COC(C)(C)C2	> 50 µM (inactive)
Cc1sc2ncn3c(=O)n(CC(=O)Nc4ccc(F)c(Cl)c4)nc3c2c1C	2.07 µM

Next, values leading:

IC50	SMILES
0.363 µM	COc1cc(NC(=O)c2ccc3c(c2)OCO3)ccc1-c1cc2ccccc2oc1=O
> 50 µM (inactive)	CCOC(=O)c1cc2c(ccn2C)n1Cc1cccc2ccccc12
> 50 µM (inactive)	NS(=O)(=O)c1cc(C(=O)OCC(=O)NC2CCCc3ccccc32)ccc1Cl (stereo not given)
2.53 µM	COc1ccc(-c2nc(Cn3nnc(C(=O)Nc4ccc(C)c(C)c4)c3N)c(C)o2)cc1
2.6 µM	Cc1ccc2c(c1)c(=O)c(C(=O)c1ccccc1)cn2CC(=O)Nc1ccc2c(c1)OCCO2
> 50 µM (inactive)	CCOC(=O)Nc1ccc(N2CCn3c(nc4ccccc43)C2)cc1OC
39.5 µM	CCc1cccc(CC)c1NC(=O)COC(=O)c1cc2cccc(OC)c2oc1=O
19.7 µM	CC1=C(c2ccc(C)c(C)c2)S(=O)(=O)NC1=NCC(=O)NCCCc1ccccc1
41.6 µM	Cc1ccc(C(=O)NCCc2nc(-c3ccc4c(c3)OCO4)n[nH]2)cc1F
14.4 µM	N#Cc1ccccc1Cn1c(=O)n(CCCCC(=O)NCCc2ccccc2)c(=O)c2ccccc21
39.7 µM	CCCc1nc2c(sc3nc4c(cc32)COC(C)(C)C4)c(=O)n1CC(=O)Nc1ccccc1C
> 50 µM (inactive)	CCc1nc(-c2cc(C(=O)N3CCOCC3)c3ccccn23)cs1
1.82 µM	CC1(C)Cc2c(sc3nc(Cc4ccccc4)nc(SCC(=O)Nc4ccccc4)c23)CO1
> 50 µM (inactive)	Cn1c(CCN2CCCC2)nc2cc(NC(=O)c3ccccc3)ccc21
5.14 µM	Cc1ccc(Cn2c(=O)n(CCC(=O)NCCc3ccccc3)c(=O)c3ccccc32)cc1
5.2 µM	COc1cc(OC)cc(-n2c(=O)c3sccc3n(CC(=O)Nc3ccc(C)cc3)c2=O)c1
3.76 µM	O=S(=O)(c1cccc(F)c1)N1CCc2nc3ccccc3n2CC1
> 50 µM (inactive)	Cc1c(-c2ccccc2)oc2c(C(=O)OCC(=O)Nc3ccccc3F)cccc2c1=O

IC50	SMILES
25.8 µM	O=C(COc1ccc(Cl)cc1)Nc1noc(-c2ccccc2)n1
> 50 µM (inactive)	CCCCn1c(=O)c(CCC(=O)OCC(=O)Nc2ccc3c(c2)OCCO3)nc2ccccc21
25.7 µM	COc1ccc(NC(=O)COc2cc(CSc3ccccc3)ncc2OC)cc1
39 µM	CC(=O)N1CCc2cc(S(=O)(=O)NCCC(=O)Nc3cccc(C)c3C)ccc21
> 50 µM (inactive)	O=C(CCCCn1c(=O)c2ccccc2n(CC(=O)Nc2ccc(F)c(Cl)c2)c1=O)NCc1ccco1
1.92 µM	COc1ccc(Cn2c(=O)[nH]c3cc(C(=O)NCCCN4CCN(c5cccc(Cl)c5)CC4)ccc3c2=O)cc1
> 50 µM (inactive)	COc1ccc(CNC(=O)CN2C(=O)C(C)=C(c3ccc(C)cc3)S2(=O)=O)cc1
34.8 µM	COc1ccccc1CNC(=O)CCCn1c(=O)c2ccccc2n(CC(=O)N2CCN(c3ccccc3)CC2)c1=O
> 50 µM (inactive)	CCn1c(CN2CCCC(c3nc(-c4cccnc4)n[nH]3)C2)nc2ccccc21 (stereo not given)
< 0.05 µM	Cc1ccc2c(=O)c(C(=O)Nc3ccccc3)cn(CC(=O)NC3CCCCC3)c2n1
45.4 µM	O=C(Cc1cccc2ccccc12)Nc1nc2ccc(F)cc2s1
44.2 µM	O=C(NCc1ccc2c(c1)OCO2)c1nnc(Cc2ccc(F)cc2)o1
20.2 µM	Cc1cccc(OCCn2c(CCNC(=O)C3CCCCC3)nc3ccccc32)c1
17.3 µM	Cc1ccc(Nc2nc(O)c(CC(=O)Nc3ccccc3C)s2)cc1C
36.2 µM	COc1ccc(NC(=O)C2c3ccccc3C(=O)N(C3CCCC3)C2c2cccs2)cc1OC (stereo not given)
> 50 µM (inactive)	COc1ccc(CCn2cnc3c4ccccc4n(C)c3c2=O)cc1OC
> 50 µM (inactive)	CS(=O)(=O)N1CCCc2cc(C(=O)Nc3ccc4c(c3)OCO4)ccc21
2.37 µM	CCc1ccc(NC(=O)Cc2nnc3cc(-c4nc(C)no4)ccn23)cc1
